The results in this text go back to patent US8993616B2, “(aza)indole derivative and use thereof for medical purposes” (Kissei Pharmaceutical Co., Ltd., priority 2007, dated 2015).

Sequence of Xanthine oxidase (from bovine milk, Sigma) (P80457 whole entry): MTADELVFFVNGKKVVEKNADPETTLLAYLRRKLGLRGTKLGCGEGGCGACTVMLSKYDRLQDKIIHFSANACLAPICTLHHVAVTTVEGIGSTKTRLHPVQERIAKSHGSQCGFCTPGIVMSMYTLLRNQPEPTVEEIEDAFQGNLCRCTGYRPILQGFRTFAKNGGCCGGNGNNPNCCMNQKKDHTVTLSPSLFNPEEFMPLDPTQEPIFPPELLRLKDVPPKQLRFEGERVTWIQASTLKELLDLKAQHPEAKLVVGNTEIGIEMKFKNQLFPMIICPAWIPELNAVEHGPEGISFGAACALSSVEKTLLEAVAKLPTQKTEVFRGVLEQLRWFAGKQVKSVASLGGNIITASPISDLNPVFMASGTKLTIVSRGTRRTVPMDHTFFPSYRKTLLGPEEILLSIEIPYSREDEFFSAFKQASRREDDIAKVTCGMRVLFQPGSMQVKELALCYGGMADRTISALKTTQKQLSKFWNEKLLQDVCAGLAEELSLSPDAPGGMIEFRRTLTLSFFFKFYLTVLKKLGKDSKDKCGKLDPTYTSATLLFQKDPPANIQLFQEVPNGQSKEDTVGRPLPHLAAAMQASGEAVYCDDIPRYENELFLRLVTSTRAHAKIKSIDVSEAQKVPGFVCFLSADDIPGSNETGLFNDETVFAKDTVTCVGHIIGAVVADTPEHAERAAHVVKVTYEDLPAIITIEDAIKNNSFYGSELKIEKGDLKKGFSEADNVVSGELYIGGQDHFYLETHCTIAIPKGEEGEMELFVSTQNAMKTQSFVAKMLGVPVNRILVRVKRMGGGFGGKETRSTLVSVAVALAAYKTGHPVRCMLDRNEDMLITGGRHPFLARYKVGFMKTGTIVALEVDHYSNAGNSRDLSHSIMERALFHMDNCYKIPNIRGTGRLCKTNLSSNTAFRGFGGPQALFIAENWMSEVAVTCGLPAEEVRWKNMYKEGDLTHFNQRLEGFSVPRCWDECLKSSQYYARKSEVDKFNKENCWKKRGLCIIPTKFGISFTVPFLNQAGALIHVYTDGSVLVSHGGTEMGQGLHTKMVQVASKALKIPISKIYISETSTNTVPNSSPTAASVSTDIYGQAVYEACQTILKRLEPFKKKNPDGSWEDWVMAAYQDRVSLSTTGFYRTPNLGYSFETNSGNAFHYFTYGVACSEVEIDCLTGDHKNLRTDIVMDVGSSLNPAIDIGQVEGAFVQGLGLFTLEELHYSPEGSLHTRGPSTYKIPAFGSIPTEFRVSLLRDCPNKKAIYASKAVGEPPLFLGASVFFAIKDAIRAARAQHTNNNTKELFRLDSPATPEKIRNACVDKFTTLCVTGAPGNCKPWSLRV

The assay has as its target Xanthine oxidase (from bovine milk, Sigma) (Bos taurus (Bovine), UniProt P80457). The experiment in a line: Xanthine oxidase inhibitory activity. It is filed as biochemical. To be noted: xanthine substrate, 10 minutes at room temperature, absorbance at 290 nm. On the procedure: (1) Preparation of Test Compounds
Test compounds were dissolved in DMSO (Wako) at 40 mM concentration and then diluted to intended concentrations with phosphate-buffered saline (PBS).
(2) Method for Measurement
Xanthine oxidase (from bovine milk, Sigma) was prepared with phosphate-buffered saline (PBS) at 0.02 units/mL, and then the solution was added to 96 well plates at 50 μL/well. In addition, test compounds diluted with PBS were added at 50 μL/well. Xanthine (Wako) at 200 μM prepared with PBS was added at 100 μL/well, and the reaction was conducted for 10 minutes at room temperature. Absorbance at 290 nm was measured using a microplate reader SpectraMax Plus 384 (Molecular device). The absorbance under a condition without xanthine is 0%, and control without test compounds is 100%. Fifty % inhibitory concentration of a test compound (IC50) was calculated (Table 60). Ex. No in the table indicates Example number.
A word on the IC50: it is the concentration needed to halve the response being measured. The low end stands for greater potency, the high end for weaker potency. In turn, `COc1ccc2c(C#N)cn(-c3ccc(C(=O)O)c(O)c3)c2c1` [Example 217] returned a half-maximal inhibitory concentration (IC50) of 6 nM.
Molecule `COc1ccc2c(c1)c(C#N)cn2-c1ccc(C(=O)O)c(O)c1` [Example 196] came in with a 50% inhibitory concentration (IC50) of 6.7 nM.
`N#Cc1cn(-c2ccc(C(=O)O)cc2)c2ccc(C(=O)O)cc12` [Example 29, 4-(5-Carboxy-3-cyanoindol-1-yl)benzoic acid] returned an IC50 of 43.3 nM.
`CCCOc1ccc2c(C#N)cn(-c3ccc(C(=O)O)c(O)c3)c2c1` [Example 220] gave an IC50 of 9.4 nM.
Consider `N#Cc1cn(-c2ccc(C(=O)O)c(O)c2)c2cc(OCCNC(=O)OCc3ccccc3)ccc12` [Example 8, 4-[6-(2-Benzyloxycarbonylaminoethyloxy)-3-cyanoindol-1-yl]-2-hydroxybenzoic acid], for which the IC50 stood at 41.5 nM.
Molecule `COCCOc1ccc2c(C#N)cn(-c3ccc(C(=O)O)c(O)c3)c2c1` [Example 215] returned an IC50 of 10.5 nM.
`N#Cc1cn(-c2ccc(C(=O)O)c(O)c2)c2cccc(OCc3ccccc3)c12` [Example 202] had an IC50 of 61.8 nM.
Then `N#Cc1cn(-c2ccc(C(=O)O)cc2)c2ccc(CO)cc12` [Example 32, 4-(3-Cyano-5-hydroxymethylindol-1-yl)benzoic acid], with 91.1 nM.
Consider `CS(=O)(=O)Nc1ccc(-c2ccc3c(c2)c(C#N)cn3-c2ccc(C(=O)O)cc2)cc1` [Example 183], for which the IC50 turned out to be 7.5 nM.
Under `N#Cc1cn(-c2ccc(C(=O)O)c(O)c2)c2cc(OCCCN)ccc12` [Example 227] stands 10.4 nM; under `N#Cc1cn(-c2ccc(C(=O)O)c(O)c2)c2cc(OCc3ccc(Cl)cc3)ccc12` [Example 232], 42.5 nM; under `CS(=O)(=O)c1ccc(-c2ccc3c(c2)c(C#N)cn3-c2ccc(C(=O)O)cc2)cc1` [Example 167], 10.9 nM.
Molecule `Cc1cc2c(C#N)cn(-c3ccc(C(=O)O)c(O)c3)c2cc1F` [Example 316] gave an IC50 of 10 nM. The IC50 values of the last two molecules are within 1.5-fold of each other.
`N#Cc1cn(-c2ccc(C(=O)O)c(O)c2)c2cc(OCc3cccc(Cl)c3)ccc12` [Example 231] returned an IC50 of 29.1 nM. This IC50 is about 2.9-fold higher than that of the molecule before.
With `N#Cc1cn(-c2ccc(C(=O)O)c(O)c2)c2cc(O)ccc12` [Example 212], the IC50 came to 5.1 nM.
Turning to `CC(=O)NCCOc1ccc2c(C#N)cn(-c3ccc(C(=O)O)c(O)c3)c2c1` [Example 12, 4-[6-(2-Acetylaminoethyloxy)-3-cyanoindol-1-yl]-2-hydroxybenzoic acid], the IC50 was found to be 7 nM.
Turning to `N#Cc1cn(-c2ccc(C(=O)O)cc2)c2ccc(-c3ccc(O)c(Cl)c3)cc12` [Example 179], half-maximal inhibition (IC50) was put at 8 nM. This IC50 and that of the molecule before are within 1.5-fold of each other.
Then `N#Cc1cccc2c1c(C#N)cn2-c1ccc(C(=O)O)c(O)c1` [Example 208], with 6 nM; and `COCCNC(=O)c1ccc2c(c1)c(C#N)cn2-c1ccc(C(=O)O)cc1` [Example 162], with 16.5 nM; and `CC(C)COc1ccc2c(c1)c(C#N)cn2-c1ccc(C(=O)O)c(O)c1` [Example 205], with 27.6 nM.
`CN(C)c1cc2c(C#N)cn(-c3ccc(C(=O)O)cc3)c2cc1C(F)(F)F` [Example 300] gave an IC50 of 96 nM.
Under `N#Cc1cn(-c2ccc(C(=O)O)cc2)c2ccc(OCc3ccsc3)cc12` [Example 176] stands 18.3 nM.
The molecule `CN(C)c1ccc(-c2ccc3c(c2)c(C#N)cn3-c2ccc(C(=O)O)cc2)cc1` [Example 165] came in with an IC50 of 111 nM.
On to `N#Cc1cn(-c2ccc(C(=O)O)c(O)c2)c2cc(OCC3CCC3)ccc12` [Example 234], for which 86.5 nM corresponded to half-maximal inhibition (IC50).
On to `N#Cc1cn(-c2ccc(C(=O)O)cc2)c2ccc(OCc3cccs3)cc12` [Example 27, 4-[3-Cyano-5-(thiophen-2-ylmethyloxy)indol-1-yl]benzoic acid], for which the IC50 is 14.6 nM.
`N#Cc1cn(-c2ccc(C(=O)O)c(O)c2)c2cccc(O)c12` [Example 203] showed an IC50 of 7.1 nM.
As to `N#Cc1cn(-c2ccc(C(=O)O)c(O)c2)c2ccc(OCC(=O)O)cc12` [Example 213], the concentration for half-maximal inhibition (IC50) worked out at 7.2 nM. This IC50 and that of the molecule before are within 1.5-fold of each other.
`N#Cc1cn(-c2ccc(C(=O)O)c(O)c2)c2cc(OCCOc3ccccc3)ccc12` [Example 222] returned an IC50 of 41.8 nM.
Turning to `CS(=O)(=O)c1ccc(COc2ccc3c(c2)c(C#N)cn3-c2ccc(C(=O)O)cc2)cc1` [Example 178], half-maximal inhibition (IC50) was put at 12.9 nM.
The molecule `COCCOc1ccc2c(c1)c(C#N)cn2-c1ccc(C(=O)O)cc1` [Example 153] had an IC50 of 12.2 nM. This IC50 and that of the molecule before are within 1.5-fold of each other.
Then `COc1ccccc1-c1ccc2c(c1)c(C#N)cn2-c1ccc(C(=O)O)cc1` [Example 157], with 14.1 nM.
Molecule `Cc1cc2c(C#N)cn(-c3ccc(C(=O)O)cn3)c2cc1F` [Example 307] displayed an IC50 of 13 nM.
Then `N#Cc1cn(-c2ccc(C(=O)O)c(O)c2)c2ccc(OCc3ccccc3)cc12` [Example 200], with 39.4 nM.
As for `Cc1cc2c(C#N)cn(-c3ccc(C(=O)O)cc3)c2cc1F` [Example 298], the IC50 is 12 nM.
The molecule `CN(C)CCCOc1ccc2c(C#N)cn(-c3ccc(C(=O)O)c(O)c3)c2c1` [Example 226] had an IC50 of 10 nM.
For `Cc1ccc2c(c1)c(C#N)cn2-c1ccc(C(=O)O)cn1` [Example 143], inhibition was half-maximal at 24.4 nM (IC50).
Turning to `N#Cc1cn(-c2ccc(C(=O)O)c(O)c2)c2cc(OCCN)ccc12` [Example 9, 4-[6-(2-Aminoethyloxy)-3-cyanoindol-1-yl]-2-hydroxybenzoic acid], the IC50 came out at 12.5 nM.
Molecule `N#Cc1cn(-c2ccc(C(=O)O)cc2)c2cccc(OCc3ccccc3)c12` [Example 19, 4-(4-Benzyloxy-3-cyanoindol-1-yl)benzoic acid] displayed an IC50 of 96 nM.
The molecule `CC(C)Oc1cc2c(C#N)cn(-c3ccc(C(=O)O)cc3)c2cc1F` [Example 303] had an IC50 of 10 nM. This IC50 is about 9.6-fold lower than that of the molecule before.
Regarding `N#Cc1cn(-c2ccc(C(=O)O)c(O)c2)c2cc(OCCCCO)ccc12` [Example 229], the IC50 came to 7.1 nM.
Then `COc1ccc(-c2ccc3c(c2)c(C#N)cn3-c2ccc(C(=O)O)cc2)cc1` [Example 15, 4-[3-Cyano-5-(4-methoxyphenyl)indol-1-yl]benzoic acid], with 15.5 nM; and `CS(=O)(=O)Nc1ccc2c(c1)c(C#N)cn2-c1ccc(C(=O)O)cc1` [Example 182], with 16.3 nM.
Molecule `N#Cc1cn(-c2ccc(C(=O)O)cc2)c2ccc(OCCCO)cc12` [Example 172] had an IC50 of 8 nM. This IC50 lies about 2-fold lower than the previous one.
Under `N#Cc1cn(-c2ccc(C(=O)O)c(O)c2)c2ccc(OCCO)cc12` [Example 210] stands 7 nM; under `CCOc1ccc2c(C#N)cn(-c3ccc(C(=O)O)c(O)c3)c2c1` [Example 223], 7.5 nM.
In turn, `COc1cc2c(C#N)cn(-c3ccc(C(=O)O)cc3)c2cc1F` [Example 287] came in with an IC50 of 16 nM. Compared with the last molecule, the IC50 is about 2.1-fold higher.
Regarding `N#Cc1cn(-c2ccc(C(=O)O)cc2)c2ccc(OCCOCc3ccccc3)cc12` [Example 175], the IC50 came out at 22.2 nM.
`N#Cc1ccc2c(c1)c(C#N)cn2-c1ccc(C(=O)O)c(O)c1` [Example 206] returned a half-maximal inhibitory concentration (IC50) of 7.2 nM.
Regarding `N#Cc1cn(-c2ccc(C(=O)O)cc2)c2ccc(OCCO)cc12` [Example 171], the IC50 stood at 10.9 nM.
In the case of `COc1cccc(-c2ccc3c(c2)c(C#N)cn3-c2ccc(C(=O)O)cc2)c1` [Example 156], the IC50 came to 11.9 nM.
As to `CCOc1ccc2c(c1)c(C#N)cn2-c1ccc(C(=O)O)c(O)c1` [Example 214], the IC50 was found to be 11 nM.
For the molecule `CC(=O)NCCCOc1ccc2c(C#N)cn(-c3ccc(C(=O)O)c(O)c3)c2c1` [Example 239], it took 6.5 nM to reach half-maximal inhibition (IC50).
`Cc1ccc2c(c1)c(C#N)cn2-c1nc(C)c(C(=O)O)s1` [Example 187] yielded an IC50 of 16.4 nM.
For the molecule `CN(C)CCOc1ccc2c(C#N)cn(-c3ccc(C(=O)O)c(O)c3)c2c1` [Example 235], the IC50 was 14.2 nM.
The molecule `CN(C)CCCOc1ccc2c(c1)c(C#N)cn2-c1ccc(C(=O)O)cc1` [Example 177] yielded an IC50 of 16.4 nM.
In the case of `COCCOc1ccc2c(C#N)cn(-c3ccc(C(=O)O)cc3)c2c1` [Example 185], it took 40.2 nM to reach half-maximal inhibition (IC50).
Take `N#Cc1cn(-c2ccc(C(=O)O)cc2)c2ccc(C(=O)NCc3ccccc3)cc12` [Example 160]: it took 11.3 nM to reach half-maximal inhibition (IC50). Against the preceding molecule, the IC50 is about 3.6-fold lower.
`N#Cc1cn(-c2ccc(C(=O)O)c(O)c2)c2cc(-c3ccccc3)ccc12` [Example 199] came in with an IC50 of 49.2 nM.
Molecule `N#Cc1cn(-c2ccc(C(=O)O)c(O)c2)c2ccc(Cl)cc12` [Example 197] showed a half-inhibitory concentration (IC50) of 9 nM.
Molecule `CN(Cc1ccccc1)C(=O)c1ccc2c(c1)c(C#N)cn2-c1ccc(C(=O)O)cc1` [Example 161] gave an IC50 of 49.8 nM.
`Cc1cc2c(C#N)cn(-c3ccc(C(=O)O)cc3)c2cc1Cl` [Example 295] returned an IC50 of 9 nM.
Then `CC(C)(C)OC(=O)NCCCOc1ccc2c(c1)c(C#N)cn2-c1ccc(C(=O)O)cc1` [Example 180], with 29 nM; and `N#Cc1cn(-c2ccc(C(=O)O)c(O)c2)c2cc(OCCO)ccc12` [Example 218], with 6 nM; and `N#Cc1cn(-c2ccc(C(=O)O)c(O)c2)c2cc(OCC3CC3)ccc12` [Example 233], with 7.2 nM.
For the molecule `N#Cc1cn(-c2ccc(C(=O)O)cc2)c2ccc(OCCCN)cc12` [Example 181], inhibition was half-maximal at 17.2 nM (IC50).
On to `CS(=O)(=O)NCCCOc1ccc2c(C#N)cn(-c3ccc(C(=O)O)c(O)c3)c2c1` [Example 240], for which the IC50 is 9.8 nM.
In turn, `N#Cc1cn(-c2ccc(C(=O)O)c(N)c2)c2ccccc12` [Example 42, 2-Amino-4-(3-cyanoindol-1-yl)benzoic acid] came in with an IC50 of 175 nM.
As to `N#Cc1cn(-c2ccc(C(=O)O)cc2)c2cccc(-c3ccccc3)c12` [Example 286], the IC50 was determined as 58 nM.
